{"source": "patent US20240261447A1", "about": "“COMPOSITIONS AND METHODS FOR TREATING CONDITIONS RELATED TO THE HEPATO[…]” (THE REGENTS OF THE UNIVERSITY OF MICHIGAN, priority 2021, published 2024)", "tested_on": "Sphincter of Oddi", "conditions": "co-administered with Fe-PSMPs via oral gavage; pancreatic tumor-bearing mice", "protocol": "Female C57BL/6 mice 6-8 weeks of age (Jackson Laboratories) were orthotopically inoculated in pancreas with KPC-Luc cells (1.5×10^4). […] During the biodistribution studies, ^68Ga-PSMPs, Fe-PSMPs or Nano-Calcium were administered in mice via oral gavage. Mice were euthanized 2 hours after oral gavage. The pancreas and other major organs were collected and wet-weighted and the radioactivity in the organs were measured by a gamma counter (Wizard 2 1-Detector, PerkinElmer).", "data": [{"smiles": "O=[N+]([O-])OCC(CO[N+](=O)[O-])O[N+](=O)[O-]", "note": "[nitroglycerin]", "values": [{"measurement": "increase in the accumulation of Fe-PSMPs in the pancreas", "value": 10, "unit": "fold"}]}]}
